Assay results: patent publication US9241947B2, “Boronic acid derivatives and therapeutic uses thereof” (priority 2013, dated 2016)
pIC50, pKi: −log10 of the molar value. Read-outs that look alike come from different tables or passages of the source.

Legend:
[1] = tested on: KP1081 (NDM-1, TEM-1, SHV-11, CMY-6, CTX-M-15); experiment: Carbapenem potentiation against clinical isolate; format: cell-based; details: Klebsiella pneumoniae, strain KP1081
Description: (§1) The results are present in Table 6.
(§2) The results are present in Table 7.

NDM-1 [2] = target: T1, NDM-1 (Klebsiella pneumoniae, UniProt C7C422); format: biochemical
VIM-1 = target: T2, VIM-1 (Pseudomonas aeruginosa, UniProt A0A0F7KYQ8); format: biochemical; details: cleavage of nitrocefin (200 uM) by VIM-1 supernatant
T2 construct: made in house; host or cells: ECM6711 strain carrying pUCP24-VIM-1 plasmid (culture supernatant, not purified)

NDM-1 [3] = target: T1, NDM-1; format: biochemical; details: read-out: Ki NDM-1, Imipenem
ECM6703 pUCP24-NDM-1 = format: cell-based, E. coli; details: Compound 1 at fixed 4 μg/ml or 8 μg/ml; NDM-1 producing strain
ECM6711 pUCP24-VIM-1 = format: cell-based, E. coli; details: Compound 1 at fixed 4 μg/ml or 8 μg/ml; VIM-1 producing strain
[4] = tested on: clinical isolates expressing class A, B and D carbapenemases; experiment: Carbapenem potentiation against panel of clinical isolates; format: cell-based; details: Compound 1 at fixed 5 μg/ml; biapenem, doripenem, imipenem, meropenem; all the strains
Description: as §1

OXA-48 = OXA-48 (Klebsiella pneumoniae, UniProt Q6XEC0); experiment: Inhibition of purified class D carbapenemase, biapenem substrate; format: biochemical; details: purified enzyme
SHV-12 = SHV-12 (Klebsiella pneumoniae, UniProt P0AD64, E235K/G234S/L31Q); experiment: Inhibition of nitrocefin cleavage by purified enzyme; format: biochemical; details: nitrocefin substrate; read-out: Ki (SHV-12, NCF)
Protocol: Purified enzymes were mixed with various concentrations of inhibitors in reaction buffer and incubated for 10 min at room temperature. Nitrocefin was added and substrate cleavage profiles were recorded at 490 nm every 10 sec for 10 min.

AB1144 (NDM-1) = experiment: Carbapenem potentiation against clinical isolate; format: cell-based; details: Acinetobacter baumannii
Description: as §1, §2

[5] = tested on: EC1064 (NDM-1, CMY-6, CTX-M-15); experiment: Carbapenem potentiation against clinical isolate; format: cell-based; details: Escherichia coli, strain EC1064
Description: as §1, §2

[6] = tested on: KP1004 (KPC-2, TEM-1, SHV-11); experiment: Carbapenem potentiation against clinical isolate; format: cell-based; details: Klebsiella pneumoniae, strain KP1004
Description: as §1, §2

KP1014 (VIM-1) = experiment: Carbapenem potentiation against clinical isolate; format: cell-based; details: Klebsiella pneumoniae, strain KP1014
Description: as §1, §2

KP1054 (VIM-1, SHV-11) = experiment: Carbapenem potentiation against clinical isolate; format: cell-based; details: Klebsiella pneumoniae, strain KP1054
Description: as §1, §2

[7] = tested on: KP1064 (KPC-2, SHV-11, TEM-1); experiment: Carbapenem potentiation against clinical isolate; format: cell-based; details: Klebsiella pneumoniae, strain KP1064
Description: as §1, §2

[8] = tested on: KP1074 (KPC-3, SHV-11, TEM); experiment: Carbapenem potentiation against clinical isolate; format: cell-based; details: Klebsiella pneumoniae, strain KP1074
Description: as §1, §2

[9] = tested on: KP1084 (KPC-3, SHV-11, TEM-1); experiment: Carbapenem potentiation against clinical isolate; format: cell-based; details: Klebsiella pneumoniae, strain KP1084
Description: as §1, §2

[10] = tested on: KP1086 (TEM, SHV, CTX-M-15, OXA-48); experiment: Carbapenem potentiation against clinical isolate; format: cell-based; details: Klebsiella pneumoniae, strain KP1086
Description: as §1, §2

[11] = tested on: KP1087 (KPC-2, CTX-M-15, SHV-11, TEM-1); experiment: Carbapenem potentiation against clinical isolate; format: cell-based; details: Klebsiella pneumoniae, strain KP1087
Description: as §1, §2

EA1019 (SHV-5, VIM-1) = experiment: Carbapenem potentiation against clinical isolate; format: cell-based, Enterobacter aerogenes; details: Klebsiella aerogenes; strain EA1019; read-out: Doripenem MIC Alone
Description: as §1, §2

[12] = cleavage of biapenem (100 uM) by NDM-1, read-out: Ki, Biapenem
[13] = cleavage of tebipenem (100 uM) by NDM-1, read-out: Ki, Tebipenem

SHV-12, sequence (P0AD64 22-286 L31Q/G234S/E235K): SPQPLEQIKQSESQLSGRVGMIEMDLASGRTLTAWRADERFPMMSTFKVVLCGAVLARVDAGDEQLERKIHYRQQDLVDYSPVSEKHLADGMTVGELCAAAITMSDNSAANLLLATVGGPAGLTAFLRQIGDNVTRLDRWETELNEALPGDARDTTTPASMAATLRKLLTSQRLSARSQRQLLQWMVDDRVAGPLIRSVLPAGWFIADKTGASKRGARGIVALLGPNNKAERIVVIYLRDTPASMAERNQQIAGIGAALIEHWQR
OXA-48, sequence (Q6XEC0 23-265 limits assumed): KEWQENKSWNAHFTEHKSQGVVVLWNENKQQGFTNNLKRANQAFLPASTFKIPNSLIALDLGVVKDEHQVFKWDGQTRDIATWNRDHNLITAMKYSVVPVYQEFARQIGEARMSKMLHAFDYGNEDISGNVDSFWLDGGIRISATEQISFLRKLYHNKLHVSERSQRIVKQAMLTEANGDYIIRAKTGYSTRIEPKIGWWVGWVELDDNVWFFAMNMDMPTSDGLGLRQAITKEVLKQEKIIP
T1 sequence (C7C422 29-270 limits assumed): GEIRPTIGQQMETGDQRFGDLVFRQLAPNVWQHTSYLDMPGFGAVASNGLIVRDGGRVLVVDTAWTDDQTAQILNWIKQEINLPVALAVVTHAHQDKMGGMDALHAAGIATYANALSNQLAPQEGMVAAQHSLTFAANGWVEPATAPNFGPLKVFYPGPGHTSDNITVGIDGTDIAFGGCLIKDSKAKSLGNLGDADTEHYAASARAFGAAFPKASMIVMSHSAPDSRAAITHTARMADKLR

C[C@@H](O)[C@H]1C(=O)N2C(C(=O)[O-])=C(SC3Cn4cnc[n+]4C3)[C@H](C)[C@H]12 (stereo partly drawn) [Biapenem]
MIC ([1]; read-out: Biapenem MIC Alone): > 10 µg/mL

O=C(O)c1cccc2c1OB(O)[C@@H](Sc1nncs1)C2 [Compound 1, (R)-3-(1,3,4-thiadiazol-2-ylthio)-2-hydroxy-3,4-dihydro-2H-benzo[e][1,2]oxaborinine-8-carboxylic acid]
pKi (NDM-1 [2]; [12]): 7.00 to 8.00
pKi (NDM-1 [2]; [13]): < 7.00
pKi (NDM-1 [2]; read-out: Ki, Imipenem): 7.00 to 8.00
pIC50 (VIM-1): > 6.00
pKi (NDM-1 [3]): 7.00 to 8.00
imipenem MIC in the presence of Compound 1 (ECM6703 pUCP24-NDM-1): decreased to the level of the strain containing empty vector
imipenem MIC in the presence of Compound 1 (ECM6711 pUCP24-VIM-1): decreased to the level of the strain containing empty vector
carbapenem MIC in the presence of Compound 1 [4]: significantly reduced

O=C(O)c1cccc2c1OB(O)[C@@H](Sc1nnc[nH]1)C2 [Compound 2, (R)-3-(4H-1,2,4-triazol-3-ylthio)-2-hydroxy-3,4-dihydro-2H-benzo[e][1,2]oxaborinine-8-carboxylic acid]
pKi (NDM-1 [2]; [13]): 7.00 to 8.00
pKi (NDM-1 [2]; read-out: Ki, Imipenem): > 8.00
pIC50 (VIM-1): > 6.00
pKi (OXA-48): 7.00 to 8.00
pKi (NDM-1 [3]): > 8.00
pKi (SHV-12): > 7.00

NC(=O)CS[C@H]1Cc2cccc(C(=O)O)c2OB1O [Compound 3, (R)-3-(2-amino-2-oxoethylthio)-2-hydroxy-3,4-dihydro-2H-benzo[e][1,2]oxaborinine-8-carboxylic acid]
pKi (NDM-1 [2]; [12]): < 7.00
pKi (NDM-1 [2]; [13]): < 7.00
pKi (NDM-1 [2]; read-out: Ki, Imipenem): < 7.00
pKi (OXA-48): > 8.00
pKi (NDM-1 [3]): < 7.00
pKi (SHV-12): 6.00 to 7.00

Nc1nnc(S[C@H]2Cc3cccc(C(=O)O)c3OB2O)s1 [Compound 4, (R)-3-(5-amino-1,3,4-thiadiazol-2-ylthio)-2-hydroxy-3,4-dihydro-2H-benzo[e][1,2]oxaborinine-8-carboxylic acid]
pKi (NDM-1 [2]; [12]): > 8.00
pKi (NDM-1 [2]; [13]): > 8.00
pKi (NDM-1 [2]; read-out: Ki, Imipenem): > 8.00
pIC50 (VIM-1): > 6.00
pKi (OXA-48): > 8.00
pKi (NDM-1 [3]): > 8.00
pKi (SHV-12): > 7.00

Cn1nnnc1S[C@H]1Cc2cccc(C(=O)O)c2OB1O [Compound 5, (R)-2-hydroxy-3-(1-1H-tetrazol-5-ylthio)-3,4-dihydro-2H-benzo[e][1,2]oxaborinine-8-carboxylic acid]
pKi (NDM-1 [2]; read-out: Ki, Imipenem): 7.00 to 8.00
pIC50 (VIM-1): ≤ 6.00
pKi (NDM-1 [3]): 7.00 to 8.00

O=C(O)c1cccc2c1OB(O)[C@@H](Sc1ccccc1)C2 [Compound 6, (R)-2-hydroxy-3-(phenylthio)-3,4-dihydro-2H-benzo[e][1,2]oxaborinine-8-carboxylic acid]
pKi (NDM-1 [2]; read-out: Ki, Imipenem): > 8.00
pIC50 (VIM-1): > 6.00
pKi (NDM-1 [3]): > 8.00

CC(=O)Nc1nnc(S[C@H]2Cc3cccc(C(=O)O)c3OB2O)s1 [Compound 7, (R)-3-(5-acetamido-1,3,4-thiadiazol-2-ylthio)-2-hydroxy-3,4-dihydro-2H-benzo[e][1,2]oxaborinine-8-carboxylic acid]
pKi (NDM-1 [2]; read-out: Ki, Imipenem): 7.00 to 8.00
pIC50 (VIM-1): > 6.00
pKi (OXA-48): > 8.00
pKi (NDM-1 [3]): 7.00 to 8.00
pKi (SHV-12): > 7.00

O=C(O)c1cccc2c1OB(O)[C@@H](Sc1cccnc1)C2 [Compound 8, (R)-2-hydroxy-3-(pyridin-3-ylthio)-3,4-dihydro-2H-benzo[e][1,2]oxaborinine-8-carboxylic acid]
pKi (NDM-1 [2]; read-out: Ki, Imipenem): < 7.00
pIC50 (VIM-1): > 6.00
pKi (NDM-1 [3]): < 7.00

NC(=O)CCS[C@H]1Cc2cccc(C(=O)O)c2OB1O [Compound 9, (R)-3-(3-amino-3-oxopropylthio)-2-hydroxy-3,4-dihydro-2H-benzo[e][1,2]oxaborinine-8-carboxylic acid]
pKi (NDM-1 [2]; read-out: Ki, Imipenem): < 7.00
pIC50 (VIM-1): > 6.00
pKi (OXA-48): 7.00 to 8.00
pKi (NDM-1 [3]): < 7.00
pKi (SHV-12): 6.00 to 7.00

CC(=N)S[C@H]1Cc2cccc(C(=O)O)c2OB1O [Compound 10, (R)-2-hydroxy-3-(1-iminoethylthio)-3,4-dihydro-2H-benzo[e][1,2]oxaborinine-8-carboxylic acid]
pKi (NDM-1 [2]; read-out: Ki, Imipenem): 7.00 to 8.00
pIC50 (VIM-1): ≤ 6.00
pKi (NDM-1 [3]): 7.00 to 8.00

O=C(O)c1cccc2c1OB(O)[C@@H](Sc1nccs1)C2 [Compound 11, (R)-2-hydroxy-3-(thiazol-2-ylthio)-3,4-dihydro-2H-benzo[e][1,2]oxaborinine-8-carboxylic acid]
pKi (NDM-1 [2]; read-out: Ki, Imipenem): < 7.00
pIC50 (VIM-1): ≤ 6.00
pKi (NDM-1 [3]): < 7.00
pKi (SHV-12): > 7.00

O=C(O)c1cccc2c1OB(O)[C@@H](Sc1c[nH]nn1)C2 [Compound 12, (R)-3-(1H-1,2,3-triazol-4-ylthio)-2-hydroxy-3,4-dihydro-2H-benzo[e][1,2]oxaborinine-8-carboxylic acid]
pKi (NDM-1 [2]; read-out: Ki, Imipenem): 7.00 to 8.00
pIC50 (VIM-1): > 6.00
pKi (NDM-1 [3]): 7.00 to 8.00

O=C(O)c1cccc2c1OB(O)[C@@H](OCc1ccccc1)C2 [Compound 13, (R)-3-(benzyloxy)-2-hydroxy-3,4-dihydro-2H-benzo[e][1,2]oxaborinine-8-carboxylic acid]
pKi (NDM-1 [2]; read-out: Ki, Imipenem): 7.00 to 8.00
pIC50 (VIM-1): > 6.00
pKi (NDM-1 [3]): 7.00 to 8.00

Nn1cnnc1S[C@H]1Cc2cccc(C(=O)O)c2OB1O [Compound 14, (R)-3-(4-amino-4H-1,2,4-triazol-3-ylthio)-2-hydroxy-3,4-dihydro-2H-benzo[e][1,2]oxaborinine-8-carboxylic acid]
pIC50 (VIM-1): > 6.00
pKi (SHV-12): > 7.00

C[C@@H](O)[C@H]1C(=O)N2C(C(=O)O)=C(S[C@@H]3CN[C@H](CNS(N)(=O)=O)C3)[C@H](C)[C@H]12 [Doripenem]
MIC (AB1144 (NDM-1); strain AB1144, read-out: Doripenem MIC Alone): > 10 µg/mL
MIC ([5]; read-out: Doripenem MIC Alone): > 10 µg/mL
MIC ([6]; read-out: Doripenem MIC Alone): 1 to 10 µg/mL
MIC (KP1014 (VIM-1); read-out: Doripenem MIC Alone): > 10 µg/mL
MIC (KP1054 (VIM-1, SHV-11); read-out: Doripenem MIC Alone): > 10 µg/mL
MIC ([7]; read-out: Doripenem MIC Alone): > 10 µg/mL
MIC ([8]; read-out: Doripenem MIC Alone): > 10 µg/mL
MIC ([1]; read-out: Doripenem MIC Alone): > 10 µg/mL
MIC ([9]; read-out: Doripenem MIC Alone): > 10 µg/mL
MIC ([10]; read-out: Doripenem MIC Alone): > 10 µg/mL
MIC ([11]; read-out: Doripenem MIC Alone): > 10 µg/mL
MIC (EA1019 (SHV-5, VIM-1)): > 10 µg/mL

C[C@@H](O)[C@H]1C(=O)N2C(C(=O)O)=C(SCCN=CN)C[C@H]12 [Imipenem]
MIC (AB1144 (NDM-1); read-out: Imipenem MIC Alone): > 10 µg/mL
MIC ([5]; read-out: Imipenem MIC Alone): > 10 µg/mL
MIC ([6]; read-out: Imipenem MIC Alone): > 10 µg/mL
MIC (KP1014 (VIM-1); read-out: Imipenem MIC Alone): > 10 µg/mL
MIC (KP1054 (VIM-1, SHV-11); read-out: Imipenem MIC Alone): 1 to 10 µg/mL
MIC ([7]; read-out: Imipenem MIC Alone): > 10 µg/mL
MIC ([8]; read-out: Imipenem MIC Alone): > 10 µg/mL
MIC ([1]; read-out: Imipenem MIC Alone): > 10 µg/mL
MIC ([9]; read-out: Imipenem MIC Alone): > 10 µg/mL
MIC ([10]; read-out: Imipenem MIC Alone): > 10 µg/mL
MIC ([11]; read-out: Imipenem MIC Alone): 1 to 10 µg/mL

C[C@@H](O)[C@H]1C(=O)N2C(C(=O)O)=C(S[C@@H]3CN[C@H](C(=O)N(C)C)C3)[C@H](C)[C@H]12 [Meropenem]
MIC (AB1144 (NDM-1); strain AB1144, read-out: Meropenem MIC Alone): > 10 µg/mL
MIC ([5]; read-out: Meropenem MIC Alone): > 10 µg/mL
MIC ([6]; read-out: Meropenem MIC Alone): 1 to 10 µg/mL
MIC (KP1014 (VIM-1); read-out: Meropenem MIC Alone): 1 to 10 µg/mL
MIC (KP1054 (VIM-1, SHV-11); read-out: Meropenem MIC Alone): > 10 µg/mL
MIC ([7]; read-out: Meropenem MIC Alone): > 10 µg/mL
MIC ([8]; read-out: Meropenem MIC Alone): > 10 µg/mL
MIC ([1]; read-out: Meropenem MIC Alone): > 10 µg/mL
MIC ([9]; read-out: Meropenem MIC Alone): > 10 µg/mL
MIC ([10]; read-out: Meropenem MIC Alone): > 10 µg/mL
MIC ([11]; read-out: Meropenem MIC Alone): > 10 µg/mL
